Entries after “also recorded” stand apart in the source; their conditions may differ.
What was measured:
Dvl-3 PDZ = biological target: T1, Dvl-3 PDZ (Homo sapiens, UniProt Q92997); assay: Binding constant by isothermal titration calorimetry (ITC); conditions: for T Δ S Dvl-3 PDZ / Δ G Dvl-3 PDZ / Δ H Dvl-3 PDZ: ITC; for Kd: by ITC, one-site binding model, 25 °C, read-out: K D Dvl-3 PDZ
T1 construct: spectra of Dvl-3 PDZ in the absence and presence of the compound; His-tag (cleaved yes); made in house
T1 sequence (Q92997 243-336): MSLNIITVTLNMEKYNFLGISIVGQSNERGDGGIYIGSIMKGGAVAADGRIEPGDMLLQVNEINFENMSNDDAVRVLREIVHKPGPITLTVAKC
Description: (§5) Isothermal titration calorimetry (ITC) experiments were performed using a VP-ITC system (MicroCal). Protein in 20 mM HEPES buffer and 50 mM NaCl (pH 7.4) was centrifuged and degassed before the experiment. A 200 µM ligand solution containing 2 % DMSO was injected 30 times in 10 µL aliquots at 120 s intervals with a stirring speed of 1000 rpm into a 1.4 mL sample cell containing the Dvl PDZ domain at a concentration of 20 µM at 25 ^∘ C. Control experiment was initially determined by titrating ligand into buffer at the same conditions. […] Thermodynamic properties and binding constants were determined by fitting the data with a non-linear least-squares routine using a single-site binding model with Origin (OriginLab) for ITC v.7.2 (MicroCal).

[1] = system: Wnt target genes (Axin2, LEF1, Bmp2) in HeLa cells; assay: qRT-PCR of Wnt target genes; type: cell-based; conditions: HeLa cells treated with Wnt3a, 24 h; 150 µM
Text: (§1) Increased β -catenin protein level is a hallmark of active Wnt signalling (Kishida et al., 1999). Once β -catenin is accumulated in the cytoplasm, it can translocate into the nucleus and activate the transcription of Wnt target genes by interacting with transcription factors of the TCF/LEF family (Fig. 2a) (Behrens et al., 1996). […] Increased mRNA levels of the Wnt target genes Axin2, LEF1, and Bmp2 (Riese et al., 1997; Jho et al., 2002; Lewis et al., 2010) were induced by Wnt3a treatment, as measured by qRT-PCR, and these increases were reduced by compounds 18, 20, and 21 (Fig. 2f).
To measure the Wnt target accumulation at mRNA level, HeLa cells were treated with Wnt3a in the presence of Dvl inhibitors for 24 h. mRNA was extracted according to the standard TRIzol® protocol (Invitrogen) and reverse-transcribed using random primers (Invitrogen) and M-MLV reverse transcriptase (Promega). The qRT-PCR was performed in a iQ5 multi-colour real-time PCR detection system (Bio-Rad) using SYBR® Green (Thermo Scientific) and gene-specific primer pairs of Bmp2, Axin2, LEF1, and β -actin (endogenous control).

Notch signalling = assay: Notch-luciferase reporter assay; type: cell-based; conditions: stimulated by overexpression of Notch intracellular domain
Description: (§2) To further evaluate the specificity of our Dvl inhibitors, the conventional TOPflash (Molenaar et al., 1996) and other luciferase reporter assays were performed.
(§3) Plasmids encoding a firefly luciferase reporter gene under the control of different responsive elements were transfected into HeLa cells with a pRL-SV40 normalization reporter plasmid using the Lipofectamine 2000 (Invitrogen). After desired treatment, cells were harvested in the passive lysis buffer (Promega), and 15 µL cell lysate was transferred to 96-well LumiNunc plates (Thermo Scientific). Firefly luciferase and Renilla luciferase were detected with the D-luciferin buffer (75 mM HEPES, 4 mM MgSO 4 , 20 mM DTT, 100 µM EDTA, 0.5 mM ATP, 135 µM Coenzyme A, and 100 µM D-Luciferin sodium salt; pH 8.0) and the coelenterazine buffer (15 mM Na4PPi, 7.5 mM NaAc, 10 mM CDTA, 400 mM Na 2 SO 4 , 25 µM APMBT, and 1.1 µM coelenterazine; pH 5.0), respectively, using the CentroXS LB960 lumiometer (Berthold Technologies).

SW480 cells [2] = assay: Colon sphere culture (sphere formation); type: cell-based; conditions: serum-free non-adherent culture, 10 d; 25–50 µM
Description: (§4) Canonical Wnt signalling contributes to cancer progression by inducing high motility and invasion of cancer cells while retaining the self-renewal property of cancer-initiating cells (Fritzmann et al., 2009; Sack et al., 2011; Vermeulen et al., 2010; Malanchi et al., 2008). […] Compounds 18 and 20 prevented increased cell migration and sphere formation.
SW480WL cells were trypsinized into single cells, seeded on 24-well cell culture plates, pre-coated with 250 µL poly-HEMA (12 mg mL ^-1 in 95 % ethanol, Sigma) per well, and incubated with Wnt3a in the presence of Dvl inhibitors in the sphere culture medium (F12 : DMEM 1:1 , 1 × B-27 supplement, 20 ng mL ^-1 EGF, 20 ng mL ^-1 FGF, 0.5 % methylcellulose) for 10 d. Numbers of spheres were then counted under the microscope.

SW480 cells [3] = assay: Trans-well migration assay; type: cell-based; conditions: 24 h, 50–100 µM
Description: as §4
Cell motility was assessed using 24-well trans-well assay (pore diameter: 8 µm , Corning). SW480WL cells were seeded in the upper chamber in serum-free DMEM with 0.1 % BSA; 20 % serum was supplemented to medium in the lower chamber. After incubation with Wnt3a in the presence of Dvl inhibitors for 24 h, non-migrant cells were scraped off using a cotton swab; the migrated cells on the filters were stained with DAPI, photographed, and counted.

[4] = system: Wnt signalling (TOP-luciferase) in HeLa cells; assay: TOPflash luciferase reporter assay; type: cell-based
Description: as §2, §3

[5] = system: β-catenin protein level in HeLa cells; assay: Western blotting of β-catenin levels; type: cell-based; conditions: HeLa cells treated with Wnt3a, 24 h; 150 µM
Text: as §1
To assess the β -catenin accumulation in HeLa cells, cells were treated with Wnt3a in the presence of Dvl inhibitors for 24 h and lysed in RIPA buffer (50 mM Tris, pH 8.0, 1 % NP-40, 0.5 % deoxycholate, 0.1 % SDS, 150 mM NaCl). Equal amounts of protein were loaded on a SDS-PAGE. Separated proteins were blotted onto PVDF membranes (polyvinylidene fluoride) for immunoblot analysis using anti- β -catenin antibody (610154, BD). HRP-conjugated anti-mouse antibody (715-035-150, Jackson ImmunoResearch Laboratories) was used for secondary detection with Western lightning chemiluminescence reagent plus (PerkinElmer) and Vilber Lourmat imaging system SL-3.

Oct4 = assay: Oct-luciferase reporter assay; type: cell-based; conditions: stimulated by overexpression of Oct4
Description: as §2, §3

Dvl-1 PDZ = biological target: T2, Dvl-1 PDZ (Homo sapiens, UniProt O14640, C338S/V250I); conditions: for T Δ S Dvl-1 PDZ / Δ G Dvl-1 PDZ / Δ H Dvl-1 PDZ: ITC
T2 sequence (O14640 245-338 V250I/C338S): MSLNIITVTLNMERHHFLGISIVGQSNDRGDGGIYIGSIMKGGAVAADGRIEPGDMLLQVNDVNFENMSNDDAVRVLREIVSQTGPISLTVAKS
Description: as §5

NF-κB signalling = assay: NF-κB-luciferase reporter assay; type: cell-based; conditions: stimulated by recombinant TNFα
Description: as §2, §3

[6] = system: canonical Wnt signalling (β-catenin/TCF-dependent GFP) in HEK293 reporter cell line; assay: TOP-GFP reporter assay (Wnt3a-induced); type: cell-based; conditions: Homo sapiens, 24 h, read-out: IC 50 Wnt3a-induced Wnt activation (TOP-GFP)
Text: Taking advantage of a lentivirus that encodes GFP in a β -catenin/TCF-dependent fashion (TOP-GFP, SABiosciences), a stable HEK293 reporter cell line was established to evaluate the inhibitory effect of compounds 18, 20, and 21 on canonical Wnt signalling activity. TOP-GFP expression in this cell line was induced by the ligand Wnt3a, which directly activates the Frizzled–Dishevelled complex and protects β -catenin from degradation by the destruction complex (Fig. 2a).
The lentivirus particle (CCS-018L, SABiosciences) encoding GFP under the control of a basal promoter element (TATA box) joined to tandem repeats of a consensus TCF/LEF binding site was transfected into HEK293 cells. Stable cells were selected by puromycin (2 µgmL^-1 ) treatment. Wnt signalling activity indicated by GFP intensity was measured by flow cytometry after 24 h incubation with recombinant mouse Wnt3a (100 ng mL ^-1 ) or GSK3 inhibitor CHIR99021 (3 µM ) in the presence of Dvl inhibitors.

Dvl PDZ = conditions: internal Frizzled sequence; ref Wong et al., 2003; Chandanamali et al., 2009; read-out: K D Dvl PDZ domains; cited from earlier work

Row | Compound | T Δ S Dvl-3 PDZ (Dvl-3 PDZ) | Δ G Dvl-3 PDZ (Dvl-3 PDZ) | Δ H Dvl-3 PDZ (Dvl-3 PDZ) | Kd (Dvl-3 PDZ) | transcription of Wnt target genes (Axin2, LEF1, Bmp2) [1] | effect on Notch-luciferase (Notch signalling) | sphere formation of SW480 cells enhanced by Wnt3a (SW480 cells [2]) | migration of SW480 cells enhanced by Wnt3a (SW480 cells [3]) | effect on Chir99021-induced Wnt activation (TOPflash) [4] | effect on TOP-luciferase signals stimulated by Wnt3a [4] | accumulation of β-catenin [5] | effect on Oct-luciferase (Oct4) | T Δ S Dvl-1 PDZ (Dvl-1 PDZ) | Δ G Dvl-1 PDZ (Dvl-1 PDZ) | Δ H Dvl-1 PDZ (Dvl-1 PDZ) | effect on NF-κB-luciferase (NF-κB signalling) | IC50 [6] | Kd (Dvl PDZ) | n (stoichiometry) Dvl-3 PDZ (Dvl-3 PDZ; ITC one-site fit) | n (stoichiometry) Dvl-1 PDZ (Dvl-1 PDZ; ITC one-site fit)
1 | Cc1ccc(NS(=O)(=O)c2ccc(CNC(=O)c3cc(Br)c[nH]3)c(Cl)c2)c(C(=O)O)c1 [Compound 20] | -3.6 kcal mol ^-1 | -6.8 kcal mol ^-1 | -10.4 kcal mol ^-1 | 9.8 ± 0.3 µM | reduced the transcription | no or a mild effect; also recorded: no significant inhibitory effects | reduced sphere formation; also recorded: prevented | reduced the migration; also recorded: prevented | no or a mild effect | specifically inhibited | inhibited accumulation | no or a mild effect; also recorded: no significant inhibitory effects | -2.2 kcal mol ^-1 | -7.2 kcal mol ^-1 | -9.4 kcal mol ^-1 | no or a mild effect; also recorded: no significant inhibitory effects | 50 to 75 µM | – | – | –
2 | Cc1ccc(NS(=O)(=O)c2ccc(CNC(=O)c3cc(Cl)c[nH]3)c(Cl)c2)c(C(=O)O)c1 [Compound 21] | 0.7 kcal mol ^-1 | -6.8 kcal mol ^-1 | -5.9 kcal mol ^-1 | 12.5 ± 0.5 µM | reduced the transcription | – | – | – | – | – | inhibited accumulation | – | -1.5 kcal mol ^-1 | -7.0 kcal mol ^-1 | -8.5 kcal mol ^-1 | – | 50 to 75 µM | – | – | –
3 | Frizzled peptide 525(GKTLQSWRRFYH)536: Frizzled peptide with internal sequence KTXXXW recognized by Dvl PDZ domains | – | – | – | – | – | – | – | – | – | – | – | – | – | – | – | – | – | ~10 µM | – | –
4 | Cc1ccc(NS(=O)(=O)c2ccc(CNC(=O)c3n[nH]c4ccccc34)c(Cl)c2)c(C(=O)O)c1 [Compound 18] | -1.2 kcal mol ^-1 | -6.7 kcal mol ^-1 | -8.0 kcal mol ^-1 | 9.4 ± 0.6 µM | reduced the transcription | – | reduced sphere formation; also recorded: prevented | reduced the migration; also recorded: prevented | – | – | inhibited accumulation | – | -4.7 kcal mol ^-1 | -7.5 kcal mol ^-1 | -12.2 kcal mol ^-1 | – | 50 to 75 µM | – | 1.14 | 1.12

Source: publication PMC10539800, “Small-molecule inhibitors of the PDZ domain of Dishevelled proteins interrupt Wnt signalling” (Magnetic resonance, 2021)
